Legend:
CCK receptors = target: T1, CCK receptors (Cavia porcellus, UniProt Q63931); experiment: Radioligand binding ([125I]Bolton-Hunter CCK8) in guinea pig pancreatic membranes; settings: displacement of [125I]BH-CCK8, pancreatic membranes, 37°C for 150 min, Hill analysis; read-out: IC₅₀ (uM) pancreas
T1 construct: Cortical and pancreatic membranes were prepared as described; from tissue; host or cells: guinea pig pancreas membranes
T1 sequence (Q63931 1-430): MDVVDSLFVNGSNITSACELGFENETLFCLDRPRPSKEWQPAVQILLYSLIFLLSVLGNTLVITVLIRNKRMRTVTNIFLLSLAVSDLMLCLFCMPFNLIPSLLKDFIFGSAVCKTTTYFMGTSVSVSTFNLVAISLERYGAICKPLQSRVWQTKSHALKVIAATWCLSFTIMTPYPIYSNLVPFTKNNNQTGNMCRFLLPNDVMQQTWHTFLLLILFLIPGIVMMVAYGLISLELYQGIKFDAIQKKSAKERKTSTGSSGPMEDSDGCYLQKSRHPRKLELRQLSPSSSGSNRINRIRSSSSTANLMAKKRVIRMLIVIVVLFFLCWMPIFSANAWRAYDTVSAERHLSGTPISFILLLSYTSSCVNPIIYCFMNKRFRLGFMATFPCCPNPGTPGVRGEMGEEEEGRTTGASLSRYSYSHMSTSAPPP
Protocol: EGTA, HEPES, BSA were purchased from Sigma Chemical Co. (St. Louis, MO). […] Male ginea pigs, 250 to 325 g, were obtained from Scientific Small Animal Laboratory and Farm (Arlington Heights, IL). Collangenase, code CLSPA was purchased from Worthington (Frehold, NJ).
In brief, pancreas and cortex were removed and rinsed with ice-cold saline. Visible fat and connective tissues were removed from the pancreas. Tissues were weighed and homogenized in approximately 25 mL of ice-cold 50 mM Tris-HCl buffer, pH 7.4 at 4°C with a Brinkman Polytron for 30 sec, setting 7. The homogenates were centrifuged for 10 min at 1075 x g and the pellet was discarded. The supernantants were saved and centrifuged at 38,730 x g for 20 min. The resultant pellets were rehomogenized in 25 mL of 50 mM Tris-HCl buffer with a Teflon-glass homogenizer, 5 up and down strokes. The homogenates were centrifuged again at 38,730 x g for 20 min. The pellets were then resuspended in 20 mM HEPES, containing 1 mM EGTA, 118 mM NaCl, 4.7 mM KCl, 5mM MgCl₂, 100 uM bestatin, 3 uM phosphoramidon, pH 7.4 at 22°C with a Teflon-glass homogenizer, 15 up and down strokes. The resuspension volume used for the cortex was 15 mL per g of original wet weight and 60 mL per g for pancreas.
The final BSA concentration was 0.1%. The cortical tissues were incubated at 30°C for 150 min. and pancreatic tissues were incubated at 37°C for 150 min. Incubations were terminated by filtration using Skatron Cell Harvester and SS32 microfiber filter mats. […] IC₅₀s were determined from the Hill analysis.

[1] = target: T2, CCK-B receptors on small cell lung cancer cell lines (Homo sapiens, UniProt P32239); experiment: Measurement of [Ca++]i changes in NCI-H345 and H209 cell lines (indo-1 fluorescence); type: cell-based; settings: read-out: Intrinsic Activity Relative to CCK-8
T2 construct: endogenous in cells; host or cells: NCI-H345 and H209 small cell lung cancer cells
T2 sequence (P32239 1-447): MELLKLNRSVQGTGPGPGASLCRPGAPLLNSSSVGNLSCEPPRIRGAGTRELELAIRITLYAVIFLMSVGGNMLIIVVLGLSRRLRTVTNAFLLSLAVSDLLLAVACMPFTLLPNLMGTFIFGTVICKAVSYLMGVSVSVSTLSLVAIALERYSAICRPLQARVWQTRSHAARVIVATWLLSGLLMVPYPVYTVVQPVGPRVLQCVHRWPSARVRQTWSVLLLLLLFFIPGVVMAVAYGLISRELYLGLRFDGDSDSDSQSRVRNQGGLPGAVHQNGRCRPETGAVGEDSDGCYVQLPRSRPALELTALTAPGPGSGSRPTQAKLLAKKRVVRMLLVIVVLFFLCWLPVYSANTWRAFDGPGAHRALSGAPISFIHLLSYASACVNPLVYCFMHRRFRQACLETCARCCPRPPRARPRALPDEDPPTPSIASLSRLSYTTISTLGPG
Protocol: Protocol for Measuring [Ca++]i Changes in NCI-H345 and H209 Cell Lines
Culture conditions were as described (D.G. Yoder, T.W. Moody, Peptides, 8, 103 (1987), except that the medium was modified to RPMI 1640 with 2.5% fetal bovine serum (heat inactivated), 5µg/l sodium selenite, 5 mg/l human transferrin, 5 mg/l insulin, penicillin (100 U/l) and streptomycin (100 µg/l). To measure intracellular Ca²⁺, cells were loaded with 1 µM of indo-1,AM, for 60 min at 37°C. The cells were centrifuged at 750 x g for 5 min and resuspended in 40 mL Buffer F (Dulbecco's phosphate buffered saline containing 0.1% glucose, pH 7.4). The cells were counted then twice washed by centrifugation. The final pellet was resuspended (approximately 1 x 10⁶ cells/mL) in Buffer F. The cells were thermally equilibrated in a thermostated cuvette (37°C) for 2 min prior to base-line fluorescence measurement. Fluorescence measurements were made with an SLM 8000C spectrofluorimeter equipped with magnetic microstirrer and polarizing filters. Measurements with indo-1-loaded cells were obtained at excitation wavelength of 350 nm and emission wavelength of 480 and 405 nM and the time interval for the measurements was 0.5 sec.

VTA neurons = experiment: Potentiation of ethanol-induced excitation of VTA neurons in rat brain slices (extracellular recording); type: cell-based, Sprague-Dawley rats; settings: ethanol 80 to 160 mM, agonist infused at least 10 minutes before ethanol
Protocol: Brain slices form Sprague-Dawley rats (100-200 gm) containing the ventral tegmental area were prepared as previously described (Brodie and Dunwiddie, Brain Research, 425, 106 (1987)). Animals used in this study were treated in strict accordance with the NIH Guide for the Care and use of Laboratory Animals. Coronal sections (400 um thick) were cut and the tissue was place directly in the recording chamber. Small platinum weights were placed on the slice to increase the stability of recordings. The slice was covered with medium and a superfusion system then maintained the flow of medium at 2 ml/min; the temperature in the recording chamber was kept at 35°C. […] The flow rate was continuously monitored with a flowmeter and adjustable valves were used to keep the rate constant. […]
Ethanol and the CCK agonist compound were added to the aCSF in the fluid delivery tubing by means of a calibrated infusion pump from stock solutions 100 to 1000 times the desired final concentrations. Final concentrations were calculated from aCSF flow rate, pump infusion rate and concentration of drug stock solution. […]
Frequency of firing was determined using a window discriminator and ratemeter, the output of which was fed to a chart recorder. […]

- IC50 (CCK receptors): 3.5 µM
- Emax [1]: 103%
Compound: CCC[C@H]1CCN(C(=O)[C@@H]2Cc3c[nH]c4cccc(c34)CC(=O)N2)[C@@H]1C(=O)N[C@@H](CC(=O)O)C(=O)N[C@@H](Cc1ccccc1)C(N)=O [Example 48, Ctp-Tpp-Asp-Phe-NH₂]
- effect on excitatory effect of ethanol on VTA neurons (firing rate) (VTA neurons): increases the excitatory effect of ethanol on VTA neurons
